The assay has as its target T1, mGlyT-1b (Mus musculus, UniProt P28571).
T1 construct: host or cells: Flp-in-CHO
T1 sequence (P28571 1-651 isoform P28571-2): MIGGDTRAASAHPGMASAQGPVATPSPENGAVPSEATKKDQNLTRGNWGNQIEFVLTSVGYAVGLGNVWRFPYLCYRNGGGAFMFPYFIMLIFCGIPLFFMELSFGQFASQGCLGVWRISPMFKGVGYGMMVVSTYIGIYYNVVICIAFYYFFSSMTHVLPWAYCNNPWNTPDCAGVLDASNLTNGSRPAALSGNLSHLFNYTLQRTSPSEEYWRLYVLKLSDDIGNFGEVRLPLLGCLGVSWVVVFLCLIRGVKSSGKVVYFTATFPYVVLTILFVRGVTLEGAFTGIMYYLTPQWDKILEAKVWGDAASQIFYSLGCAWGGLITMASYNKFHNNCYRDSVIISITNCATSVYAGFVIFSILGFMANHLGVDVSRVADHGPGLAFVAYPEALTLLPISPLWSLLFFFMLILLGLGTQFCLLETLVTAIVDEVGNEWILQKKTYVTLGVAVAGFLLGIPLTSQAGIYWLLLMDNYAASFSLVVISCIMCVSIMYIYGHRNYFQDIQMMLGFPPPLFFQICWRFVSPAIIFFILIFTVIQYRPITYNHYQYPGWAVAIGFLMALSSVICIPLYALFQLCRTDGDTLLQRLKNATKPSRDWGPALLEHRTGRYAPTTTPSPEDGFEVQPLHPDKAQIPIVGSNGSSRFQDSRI
In words: Glycine uptake inhibition assay (mGlyT-1b), [3H]-glycine uptake in Flp-in-CHO cells. As to conditions: Flp-in-CHO cells stably transfected with mGlyT1b cDNA, 20 min at 22° C. preincubation. Format: cell-based. The procedure:
Nutrient mixture F-12 (Gibco Life-technologies), fetal bovine serum (FBS) 5%, (Gibco life technologies), Penicillin/Streptomycin 1% (Gibco life technologies), Hygromycin 0.6 mg/ml (Gibco life technologies), Glutamine 1 mM Gibco life technologies) • Uptake buffer (UB): 150 mM NaCl, 10 mM Hepes-Tris, pH 7.4, […], 2.5 mM KCl, 2.5 mM MgSO4, 10 mM (+) D-glucose. • Flp-in™-CHO (Invitrogen Cat n° R758-07) cells stably transfected with mGlyT1b cDNA. Glycine Uptake Inhibition Assay (mGlyT-1b)
On day 1 mammalian cells, (Flp-in™-CHO), transfected with mGlyT-1b cDNA, were plated at the density of 40,000 cells/well in complete F-12 medium, without hygromycin in 96-well culture plates. On day 2, the medium was aspirated and the cells were washed twice with uptake buffer (UB). The cells were then incubated for 20 min at 22° C. with either (i) no potential competitor, (ii) 10 mM non-radioactive glycine, (iii) a concentration of a potential inhibitor. A range of concentrations of the potential inhibitor was used to generate data for calculating the concentration of inhibitor resulting in 50% of the effect (e.g. IC50, the concentration of the competitor inhibiting glycine uptake of 50%). A solution was then immediately added containing [^3H]-glycine 60 nM (11-16 Ci/mmol) and 25 μM non-radioactive glycine. The plates were incubated with gentle shaking and the reaction was stopped by aspiration of the mixture and washing (three times) with ice-cold UB. The cells were lysed with scintillation liquid, shaken 3 hours and the radioactivity in the cells was counted using a scintillation counter.

In patent publication US8063098B2, “GlyT1 receptor antagonists” (Hoffmann-La Roche Inc., priority 2008, dated 2011) one finds IC50 data, which are given here for 28 molecules.

Each structure is given as a SMILES string.

`COc1cc(C(F)(F)F)cc(SC)c1C(=O)NC(c1cc(F)cc(F)c1)C1(N2CCCC2)CCC1` (stereo not shown) [Example 53] registered a concentration for half-maximal inhibition (IC50) of 0.0141 µM.

Molecule `COc1cc(C(F)(F)F)cc(SC)c1C(=O)NC(c1ccccc1)C1(N2C3CCC2COC3)CCC1` (racemic) [Example 71, (rac)-2-Methoxy-6-methylsulfanyl-N-{[1-(3-oxa-8-aza-bicyclo[3.2.1]oct-8-yl)-cyclobutyl]-phenyl-methyl}-4-trifluoromethyl-benzamide] showed a half-inhibitory concentration (IC50) of 0.0521 µM. The molecule `CCc1cc(C(F)(F)F)cc(C(F)(F)F)c1C(=O)NC(c1ccccc1)C1(N2CCCC2)CCC1` (stereo not shown) [Example 37] came in with an IC50 of 0.0398 µM. As for `COc1cc(C(F)(F)F)cc(SC)c1C(=O)NC(c1ccccc1)C1(N2CCCC2)CCC1` (single isomer, unassigned; (+)) [Example 33, (+)-2-Methoxy-6-methylsufanyl-N-[phenyl-(1-pyrrolidin-1-yl-cyclobutyl)-methyl]-4-trifluoromethyl-benzamide], 0.00847 µM corresponded to half-maximal inhibition (IC50). `CSc1cccc(C(F)(F)F)c1C(=O)NC(c1ccccc1)C1(N2CCCC2)CCC1` (stereo not shown) [Example 13, 2-Methylsulfanyl-N-[phenyl-(1-pyrrolidin-1-yl-cyclobutyl)-methyl]-6-trifluoromethyl-benzamide]: the IC50 came to 0.034 µM. To `COc1cc(C(F)(F)F)cc(SC)c1C(=O)NC(c1ccccc1)C1(N2CCCC2)CCC1` (stereo not shown) [Example 12, 2-Methoxy-6-methylsulfanyl-N-[phenyl-(1-pyrrolidin-1-yl-cyclobutyl)-methyl]-4-trifluoromethyl-benzamide] belongs 0.0112 µM; to `CSc1cc(C(F)(F)F)ccc1C(=O)NC(c1ccccc1)C1(N2CC3(COC3)C2)CCC1` (stereo not shown) [Example 74, 2-Methylsulfanyl-N-{[1-(2-oxa-6-aza-spiro[3.3]hept-6-yl)-cyclobutyl]-phenyl-methyl}-4-trifluoromethyl-benzamide], 0.0101 µM. To `CSc1cc(C(F)(F)F)ccc1C(=O)NC(c1ccccc1)C1(N2CCCCC2)CCC1` (stereo not shown) [Example 48, 2-Methylsulfanyl-N-[phenyl-(1-piperidin-1-yl-cyclobutyl)-methyl]-4-trifluoromethyl-benzamide] belongs 0.0275 µM.

In turn, `CSc1cc(C(F)(F)F)ccc1C(=O)NC(c1ccccc1)C1(N(C)C)CCC1` (stereo not shown) [Example 50, N-[(1-Dimethylamino-cyclobutyl)-phenyl-methyl]-2-methylsulfanyl-4-trifluoromethyl-benzamide] had an IC50 of 0.01 µM.

As for `O=C(NC(c1ccccc1)C1(N2CCCC2)CCC1)c1ccc(C(F)(F)F)cc1Br` (stereo not shown) [Example 52, 2-Bromo-N-[phenyl-(1-pyrrolidin-1-yl-cyclobutyl)-methyl]-4-trifluoromethyl-benzamide], the IC50 came out at 0.0127 µM. For the molecule `O=C(NC(c1ccccc1)C1(N2CCCC2)CCC1)c1ccc(C(F)(F)F)cc1C(F)(F)F` (stereo not shown) [Example 15, N-[Phenyl-(1-pyrrolidin-1-yl-cyclobutyl)-methyl]-2,4-bis-trifluoromethyl-benzamide], half-maximal inhibition (IC50) was put at 0.0312 µM. Regarding `Cc1cc(F)ccc1C(=O)NC(c1ccccc1)C1(N2CCCC2)CCC1` (stereo not shown) [Example 57, 4-Fluoro-2-methyl-N-[phenyl-(1-pyrrolidin-1-yl-cyclobutyl)-methyl]-benzamide], inhibition was half-maximal at 0.0596 µM (IC50). `COc1cc(Cl)ccc1C(=O)NC(c1ccccc1)C1(N2CCCC2)CCC1` (stereo not shown) [Example 47, 4-Chloro-2-methoxy-N-[phenyl-(1-pyrrolidin-1-yl-cyclobutyl)-methyl]-benzamide]: the IC50 turned out to be 0.0724 µM. To `COc1cc(C(F)(F)F)cc(SC)c1C(=O)NC(c1ccccc1)C1(N2CCCC2)CCC1` (single isomer, unassigned; (+)) [Example 32, (+)-2-Methoxy-6-methylsulfanyl-N-[phenyl-(1-pyrrolidin-1-yl-cyclobutyl)-methyl]-4-trifluoromethyl-benzamide] belongs 0.0225 µM. Molecule `CCc1cc(C(F)(F)F)ccc1C(=O)NC(c1ccccc1)C1(N2CCCC2)CCC1` (stereo not shown) [Example 68, 2-Ethyl-N-[phenyl-(1-pyrrolidin-1-yl-cyclobutyl)-methyl]-4-trifluoromethyl-benzamide] yielded an IC50 of 0.0091 µM. To `O=C(NC(c1ccccc1)C1(N2CCCC2)CCC1)c1ccccc1C(F)(F)F` (stereo not shown) [Example 44, N-[Phenyl-(1-pyrrolidin-1-yl-cyclobutyl)-methyl]-2-trifluoromethyl-benzamide] belongs 0.0951 µM.

The molecule `COc1cc(C(F)(F)F)cc(SC)c1C(=O)NC(c1ccccc1)C1(N(C)C)CCC1` (stereo not shown) [Example 51, N-[(1-Dimethylamino-cyclobutyl)-phenyl-methyl]-2-methoxy-6-methylsulfanyl-4-trifluoromethyl-benzamide] came in with an IC50 of 0.0142 µM.

With `COc1cc(C(F)(F)F)cc(SC)c1C(=O)NC(c1ccccc1)C1(N2CCOCC2)CCC1` (stereo not shown) [Example 60, 2-Methoxy-6-methylsulfanyl-N-[(1-morpholin-4-yl-cyclobutyl)-phenyl-methyl]-4-trifluoromethyl-benzamide], the IC50 is 0.0496 µM. On to `CSc1cc(C(F)(F)F)cc(O)c1C(=O)NC(c1ccccc1)C1(N2CCCC2)CCC1` (stereo not shown) [Example 69, 2-Hydroxy-6-methylsulfanyl-N-[phenyl-(1-pyrrolidin-1-yl-cyclobutyl)-methyl]-4-trifluoromethyl-benzamide], for which the IC50 was determined as 0.0095 µM.

Take `O=C(NC(c1ccccc1)C1(N2CCCC2)CCC1)c1ccc(Cl)cc1C(F)(F)F` (stereo not shown) [Example 54]: it took 0.0275 µM to reach half-maximal inhibition (IC50).

In turn, `CSc1cc(C(F)(F)F)ccc1C(=O)NC(c1ccccc1)C1(N2CCCC2)CCC1` (single isomer, unassigned; (+)) [Example 35, (+)-2-Methylsulfanyl-N-[phenyl-(1-pyrrolidin-1-yl-cyclobutyl)-methyl]-4-trifluoromethyl-benzamide] came in with an IC50 of 0.0098 µM. For the molecule `COc1cc(C(F)(F)F)ccc1C(=O)NC(c1ccccc1)C1(N2CCCC2)CCC1` (stereo not shown) [Example 17, 2-Methoxy-N-[phenyl-(1-pyrrolidin-1-yl-cyclobutyl)-methyl]-4-trifluoromethyl-benzamide], the IC50 came to 0.0368 µM. With `Cc1cc(Cl)ccc1C(=O)NC(c1ccccc1)C1(N2CCCC2)CCC1` (stereo not shown) [Example 63, 4-Chloro-2-methyl-N-[phenyl-(1-pyrrolidin-1-yl-cyclobutyl)-methyl]-benzamide], the IC50 turned out to be 0.0297 µM. Molecule `COc1cc(C(F)(F)F)cc(SC)c1C(=O)NC(c1ccc(F)cc1)C1(N2CCCC2)CCC1` (stereo not shown) [Example 38, N-[(4-Fluoro-phenyl)-(1-pyrrolidin-1-yl-cyclobutyl)-methyl]-2-methoxy-6-methylsulfanyl-4-trifluoromethyl-benzamide] had an IC50 of 0.0175 µM.

`CSc1cc(C(F)(F)F)cc(C(F)(F)F)c1C(=O)NC(c1ccccc1)C1(N2CCCC2)CCC1` (single isomer, unassigned; (-)) [Example 31, (−)-2-Methylsulfanyl-N-[phenyl-(1-pyrrolidin-1-yl-cyclobutyl)-methyl]-4,6-bis-trifluoromethyl-benzamide] yielded an IC50 of 0.0181 µM. As to `COc1cc(C(F)(F)F)cc(SC)c1C(=O)NC(c1ccccc1)C1(N2CCN(C3CC3)CC2)CCC1` (stereo not shown) [Example 73, N-{[1-(4-Cyclopropyl-piperazin-1-yl)-cyclobutyl]-phenyl-methyl}-2-methoxy-6-methylsulfanyl-4-trifluoromethyl-benzamide], half-maximal inhibition (IC50) was put at 0.0308 µM. To `CSc1cc(C(F)(F)F)ccc1C(=O)NC(c1ccccc1)C1(N2CCCC2)CCC1` (stereo not shown) [Example 16, 2-Methylsulfanyl-N-[phenyl-(1-pyrrolidin-1-yl-cyclobutyl)-methyl]-4-trifluoromethyl-benzamide] belongs 0.0134 µM. As for `COc1cc(C(F)(F)F)cc(SC)c1C(=O)NC(c1ccccc1)C1(N2CC3(COC3)C2)CCC1` (stereo not shown) [Example 75, 2-Methoxy-6-methylsulfanyl-N-{[1-(2-oxa-6-aza-spiro[3.3]hept-6-yl)-cyclobutyl]-phenyl-methyl}-4-trifluoromethyl-benzamide], half-maximal inhibition (IC50) required 0.0261 µM.
